Experimental data: patent publication US12527519B2, “Neurostimulation devices and methods” (Cardionomix, Inc., priority 2016, dated 2026)

Tested on: normal, non-HF ovine model
Experiment: Right ventricle vs left ventricle contractility after a change, pressure max(dP/dt) as surrogate, heartbeat-by-heartbeat correlation
Type: in vivo
Settings: max(dP/dt) as surrogate for contractility, calcium at 5 mL
Excerpt: The correlation was a heartbeat-by-heartbeat analysis. Pressure measurements, taken by a Millar catheter comprising a MEMS pressure sensor, in units of max(dP/dt) was used as a surrogate for contractility.
The first change, a dobutamine injection, provided a very high contractility increase greater than 500%. The average correlation between right ventricle contractility and left ventricle contractility was very good at 0.91, where 1.00 is a perfect correlation. Accordingly, if a subject is given a dobutamine injection, measuring changes to right ventricle contractility can provide accurate information about changes to left ventricle contractility. The first change was repeated three times.
The second change, calcium injection at 5 mL, provided a contractility increase of about 20%. […] The average correlation between right ventricle contractility and left ventricle contractility using a Millar (MEMS) sensor on a catheter was very good at 0.91. The average correlation between right ventricle contractility and left ventricle contractility using a fluid-filled lumen of a Swan-Ganz catheter in communication with an external pressure sensor was also very good at 0.87. […]

calcium [Calcium Injection] was tested, and the “Contractility % Increase” value was about 20% and the “Contractility % Increase” value (listed as calcium injection) was “about 20%”.
